This is an account of results in patent publication US12060333B2 (Hoffmann-La Roche Inc., priority 2021, dated 2024).

The target in the first experiment is SARS-CoV-2 3CLpro (Severe acute respiratory syndrome coronavirus 2, UniProt P0DTD1). The experiment in a line: biochemical. Particulars: IC50 (μM), SARS-CoV-2 3CLPro assay.
What is called IC50 is the concentration that inhibits the measured activity by half. As for `NC(=O)CCN(NC(=O)[C@H](CC1CCCCC1)NC(=O)OCc1ccccc1)C(=O)[C@@H](F)Cl` (single isomer, unassigned) [Example 16-A], the IC50 is 0.053 µM.

On to `CC(C)CC(NC(=O)c1cn2ccccc2n1)C(=O)NN(CCC(N)=O)C(=O)C(F)Cl` (racemic) [Example 95, N-[rac-(1S)-1-[[(3-amino-3-oxo-propyl)-(2-chloro-2-fluoro-acetyl)amino]carbamoyl]-3-methyl-butyl]imidazo[1,2-a]pyridine-2-carboxamide], for which the IC50 stood at 0.65 µM. For the compound `CC(C)C[C@H](NC(=O)c1nc2cc(Cl)ccc2[nH]1)C(=O)NN(CCC(N)=O)C(=O)[C@H](F)Cl` (racemic) [Example 60-B, 5-chloro-N-[rac-(1S)-1-[[(3-amino-3-oxo-propyl)-[rac-(2R)-2-chloro-2-fluoro-acetyl]amino]carbamoyl]-3-methyl-butyl]-1H-benzimidazole-2-carboxamide], half-maximal inhibition (IC50) required 0.052 µM. On the same count and under the same terms, as for `Cc1cc(C(=O)N[C@@H](CC2CC2)C(=O)NN(CCC(N)=O)C(=O)C(F)Cl)no1` (mixture of isomers) [Example 75, 5-Methyl-N-[rac-(1S)-2-[2-(3-amino-3-oxo-propyl)-2-(2-chloro-2-fluoro-acetyl)hydrazino]-1-(cyclopropylmethyl)-2-axo-ethyl]isoxazole-3-carboxamide], the figure is 0.32 µM; as for `CC(C)C[C@H](NC(=O)OCc1ccccc1)C(=O)NN(CCC(N)=O)C(=O)[C@H](F)Cl` (single isomer, unassigned) [Example 17-B], 0.077 µM. The same measure, in the same setting: as for `CC(C)C[C@H](NC(=O)c1cc2c(Cl)cccc2[nH]1)C(=O)NN(CCC(N)=O)C(=O)[C@@H](F)Cl` (single isomer, unassigned) [Example 53-A], the figure is 0.014 µM; as for `COc1cccc(NCC(=O)N[C@@H](CC(C)C)C(=O)NN(CCC(N)=O)C(=O)[C@@H](F)Cl)c1` (single isomer, unassigned) [Example 83-B], 0.06 µM; as for `NC(=O)CCN(NC(=O)[C@H](CC1CCCCC1)NC(=O)OCc1ccccc1)C(=O)C(F)Cl` (stereo partly drawn) [Example 16, Benzyl N-[(1S)-2-[2-(3-amino-3-oxo-propyl)-2-(2-chloro-2-fluoro-acetyl)hydrazino]-1-(cyclohexylmethyl)-2-axo-ethyl]carbamate], 0.009 µM.

For `CC(C)C[C@H](NC(=O)c1cc2ccccc2[nH]1)C(=O)NN(CCC(N)=O)C(=O)CF` [Example 31, N-[(1S)-1-[[(3-Amino-3-axo-propyl)-(2-fluoroacetyl)amino]carbamoyl]-3-methyl-butyl]-1H-indole-2-carboxamide], the IC50 is 0.65 µM. Still for that read-out and setting: as for `CC(C)C[C@H](NC(=O)c1nc2cc(Cl)ccc2[nH]1)C(=O)NN(CCC(N)=O)C(=O)[C@@H](F)Cl` (racemic) [Example 60-A, 5-chloro-N-[rac-(1S)-1-[[(3-amino-3-axo-propyl)-[rac-(2S)-2-chloro-2-fluoro-acetyl]amino]carbamoyl]-3-methyl-butyl]-1H-benzimidazole-2-carboxamide], the figure is 0.008 µM.

For the compound `NC(=O)CCN(NC(=O)[C@H](CC1CCC1)NC(=O)c1nc2ccccc2[nH]1)C(=O)C(F)Cl` (mixture of isomers) [Example 66, N-[rac-(1S)-2-[2-(3-amino-3-oxo-propyl)-2-(2-chloro-2-fluoro-acetyl)hydrazino]-1-(cyclobutylmethyl)-2-axo-ethyl]-1H-benzimidazole-2-carboxamide], the IC50 stood at 0.034 µM. The compound `CC(C)C[C@H](NC(=O)c1cc2cc(Cl)ccc2[nH]1)C(=O)NN(CCC(N)=O)C(=O)[C@H](F)Cl` (racemic) [Example 58-B, 5-chloro-N-[rac-(1S)-1-[[(3-amino-3-oxo-propyl)-[rac-(2R)-2-chloro-2-fluoro-acetyl]amino]carbamoyl]-3-methyl-butyl]-1H-indole-2-carboxamide] returned an IC50 of 0.007 µM. `Cc1cc(C(=O)N[C@@H](CC2CCCCC2)C(=O)NN(CCC(N)=O)C(=O)C(F)Cl)no1` (mixture of isomers) [Example 74, 5-Methyl-N-[rac-(1S)-2-[2-(3-amino-3-oxo-propyl)-2-(2-chloro-2-fluoro-acetyl)hydrazino]-1-(cyclohexylmethyl)-2-axo-ethyl]isoxazole-3-carboxamide] came in with a half-inhibitory concentration (IC50) of 0.028 µM. On the same count and under the same terms, as for `CC(C)C[C@H](NC(=O)/C=C/c1ccccc1)C(=O)NN(CCC(N)=O)C(=O)[C@@H](F)Cl` (single isomer, unassigned) [Example 86-B], the figure is 0.023 µM; as for `COc1cccc2[nH]c(C(=O)N[C@@H](CC(C)C)C(=O)NN(CCC(N)=O)C(=O)CF)cc12` [Example 30, N-[(1S)-1-[[(3-Amino-3-axo-propyl)-(2-fluoroacetyl)amino]carbamoyl]-3-methyl-butyl]-4-methoxy-1H-indole-2-carboxamide], 0.16 µM.

Staying with this experiment, now noted: read-out: IC50 (μM), SARS-CoV-2 3CLPro assay.
Take `CC(C)C[C@H](NC(=O)c1cc2ccccn2n1)C(=O)NN(CCC(N)=O)C(=O)C(F)Cl` (mixture of isomers) [Example 90, N,N-[rac-(1S)-1-[[(3-amino-3-oxo-propyl)-(2-chloro-2-fluoro-acetyl)amino]carbamoyl]-3-methyl-butyl]pyrazolo[1,5-a]pyridine-2-carboxamide]: the IC50 was 0.073 µM. Still for that read-out and setting: as for `COc1cc2cc(C(=O)N[C@@H](CC(C)C)C(=O)NN(CCC(N)=O)C(=O)CCl)nc-2c[nH]1` [Example 47, N-[(1S)-1-[[(3-Amino-3-oxo-propyl)-(2-chloroacetyl)amino]carbamoyl]-3-methyl-butyl]-5-methoxy-6H-pyrrolo[2,3-c]pyridine-2-carboxamide], the figure is 0.014 µM.

Regarding `NC(=O)CCN(NC(=O)[C@H](CC1CCCCC1)NC(=O)/C=C/c1ccc(Cl)cc1F)C(=O)CCl` [Example 33, 3-[(2-Chloroacetyl)-[[(2S)-2-[[(E)-3-(4-chloro-2-fluoro-phenyl)prop-2-enoyl]amino]-3-cyclohexyl-propanoyl]amino]amino]propanamide], the IC50 was determined as 0.002 µM. On to `CC(C)C[C@H](NC(=O)OCc1ccccc1)C(=O)NN(CCC(N)=O)C(=O)C(C)Cl` (stereo partly drawn) [Example 4, Benzyl N-[(1S)-1-[[(3-amino-3-oxo-propyl)-(2-chloropropanoyl)amino]carbamoyl]-3-methyl-butyl]carbamate], for which the concentration for half-maximal inhibition (IC50) was determined as 0.33 µM. Still for that read-out and setting: as for `NC(=O)CCN(NC(=O)[C@H](CC1CCCCC1)NC(=O)OCc1ccccc1)C(=O)CCl` [Example 8, Benzyl N-[(1S)-2-[2-(3-amino-3-oxo-propyl)-2-(2-chloroacetyl)hydrazino]-1-(cyclohexylmethyl)-2-axo-ethyl]carbamate], the figure is 0.008 µM; as for `COc1cccc2[nH]c(C(=O)N[C@@H](CC3CCCCC3)C(=O)NN(CCC(N)=O)C(=O)[C@H](F)Cl)cc12` [Example 56-A, N-[(1S)-2-[2-(3-amino-3-oxo-propyl)-2-[(2R)-2-chloro-2-fluoro-acetyl]hydrazino]-1-(cyclohexylmethyl)-2-axo-ethyl]-4-methoxy-1H-indole-2-carboxamide], 0.008 µM; as for `CC(C)C[C@H](NC(=O)c1cc2cnccc2[nH]1)C(=O)NN(CCC(N)=O)C(=O)CCl` [Example 52, N-[(1S)-1-[[(3-amino-3-oxo-propyl)-(2-chloroacetyl)amino]carbamoyl]-3-methyl-butyl]-1H-pyrrolo[3,2-c]pyridine-2-carboxamide], 0.014 µM. For the compound `Cc1cc(C(=O)N[C@@H](CC2CCCCC2)C(=O)NN(CCC(N)=O)C(=O)CCl)no1` [Example 48, N-[(1S)-2-[2-(3-amino-3-oxo-propyl)-2-(2-chloroacetyl)hydrazino]-1-(cyclohexylmethyl)-2-axo-ethyl]-5-methyl-isoxazole-3-carboxamide], the IC50 is 0.004 µM. Regarding `CC(C)C[C@H](NC(=O)c1ccon1)C(=O)NN(CCC(N)=O)C(=O)CCl` [Example 43, N-[(1S)-1-[[(3-Amino-3-oxo-propyl)-(2-chloroacetyl)amino]carbamoyl]-3-methyl-butyl]isoxazole-3-carboxamide], the IC50 is 0.036 µM. On the same count and under the same terms, the figure for `CC1(C[C@H](NC(=O)c2cc(C(F)(F)F)on2)C(=O)NN(C[C@@H]2CCNC2=O)C(=O)[C@H](F)Cl)CC1` [Example 98, N—((S)-1-(2-((R)-2-Chloro-2-fluoroacetyl)-2-(((S)-2-axopyrrolidin-3-yl)methyl)hydrazineyl)-3-(1-methylcyclopropyl)-1-oxopropan-2-yl)-5-(trifluoromethyl)isoxazole-3-carboxamide] is 0.017 µM; for `CC(C)C[C@@H](C(=O)NN(CCC(N)=O)C(=O)CCl)N(C)C(=O)c1cc2ccccc2[nH]1` [Example 40, N-[(1S)-1-[[(3-Amino-3-axo-propyl)-(2-chloroacetyl)amino]carbamoyl]-3-methyl-butyl]-N-methyl-1H-indole-2-carboxamide] it is 0.007 µM; for `CC(C)C[C@H](NC(=O)OCc1ccccc1)C(=O)NN(CCC(N)=O)C(=O)C(F)Cl` (stereo partly drawn) [Example 17, Benzyl N-[(1S)-1-[[(3-amino-3-oxo-propyl)-(2-chloro-2-fluoro-acetyl)amino]carbamoyl]-3-methyl-butyl]carbamate] it is 0.09 µM. As to `CCCN(NC(=O)[C@H](CC(C)C)NC(=O)OCc1ccccc1)C(=O)CCl` [Example 21, Benzyl N-[(1S)-1-[[(2-chloroacetyl)-propyl-amino]carbamoyl]-3-methyl-butyl]carbamate], the IC50 is 0.39 µM. Take `COc1cccc2[nH]c(C(=O)N[C@@H](CC3CCCCC3)C(=O)NN(CCC(N)=O)C(=O)CF)cc12` [Example 37, N-[(1S)-2-[2-(3-Amino-3-axo-propyl)-2-(2-fluoroacetyl)hydrazino]-1-(cyclohexylmethyl)-2-axo-ethyl]-4-methoxy-1H-indole-2-carboxamide]: the IC50 came to 0.038 µM. On the same count and under the same terms, as for `Cc1nc(C(=O)N[C@@H](CC(C)C)C(=O)NN(CCC(N)=O)C(=O)CCl)co1` [Example 45, N-[(1S)-1-[[(3-Amino-3-oxo-propyl)-(2-chloroacetyl)amino]carbamoyl]-3-methyl-butyl]-2-methyl-oxazole-4-carboxamide], the figure is 0.046 µM; as for `CC(C)C[C@H](NC(=O)OCc1ccccc1)C(=O)NN(Cc1cc[nH]n1)C(=O)CCl` [Example 23, Benzyl N-[(1S)-1-[[(2-chloroacetyl)-(1H-pyrazol-3-ylmethyl)amino]carbamoyl]-3-methyl-butyl]carbamate], 0.034 µM.
